The target in this assay is USP7 (Homo sapiens, UniProt Q93009). The experiment in a line: USP7 inhibitory potency (Table 1). In kind it is biochemical.

SMILES strings stand for the structures.

Sequence of USP7 (Q93009 whole entry): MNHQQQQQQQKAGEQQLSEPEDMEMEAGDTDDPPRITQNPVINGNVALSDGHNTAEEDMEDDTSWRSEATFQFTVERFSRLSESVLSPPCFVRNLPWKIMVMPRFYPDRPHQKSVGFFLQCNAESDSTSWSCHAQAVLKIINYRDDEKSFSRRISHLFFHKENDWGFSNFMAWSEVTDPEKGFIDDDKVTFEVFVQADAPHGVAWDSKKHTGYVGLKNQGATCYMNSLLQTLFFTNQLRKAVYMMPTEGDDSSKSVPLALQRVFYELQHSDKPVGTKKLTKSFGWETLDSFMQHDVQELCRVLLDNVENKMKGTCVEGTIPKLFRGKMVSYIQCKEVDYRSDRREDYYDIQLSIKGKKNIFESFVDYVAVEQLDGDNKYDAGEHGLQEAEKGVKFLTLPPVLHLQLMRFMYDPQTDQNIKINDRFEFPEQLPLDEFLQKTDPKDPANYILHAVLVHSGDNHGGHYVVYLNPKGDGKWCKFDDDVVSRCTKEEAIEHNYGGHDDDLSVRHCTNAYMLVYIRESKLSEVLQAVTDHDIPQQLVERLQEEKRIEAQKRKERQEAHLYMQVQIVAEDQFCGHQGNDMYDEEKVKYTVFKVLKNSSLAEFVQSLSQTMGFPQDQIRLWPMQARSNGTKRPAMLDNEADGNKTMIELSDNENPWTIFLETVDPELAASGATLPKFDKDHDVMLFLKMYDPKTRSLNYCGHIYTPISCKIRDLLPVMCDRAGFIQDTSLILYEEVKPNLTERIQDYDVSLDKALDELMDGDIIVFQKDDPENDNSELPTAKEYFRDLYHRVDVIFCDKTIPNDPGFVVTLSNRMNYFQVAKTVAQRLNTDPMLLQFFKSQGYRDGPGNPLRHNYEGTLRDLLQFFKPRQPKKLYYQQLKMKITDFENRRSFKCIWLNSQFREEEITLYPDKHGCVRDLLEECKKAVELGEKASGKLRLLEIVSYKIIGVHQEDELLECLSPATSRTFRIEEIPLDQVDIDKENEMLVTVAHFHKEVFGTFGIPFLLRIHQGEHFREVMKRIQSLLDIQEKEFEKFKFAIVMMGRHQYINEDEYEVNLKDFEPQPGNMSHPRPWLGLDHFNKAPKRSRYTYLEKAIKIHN

A word on the IC50: it is the concentration that inhibits the measured activity by half. A low value points to higher potency. As for `O=C([C@H]1Cc2cc(Cl)cc(-c3ccnc4cc(CCN5C(=O)c6ccccc6C5=O)sc34)c2O1)N1CCNCC1` [(R)-2-(2-(7-(5-chloro-2-(piperazine-1-carbonyl)-2,3-dihydrobenzofuran-7-yl)thieno[3,2-b]pyridin-2-yl)ethyl)isoindoline-1,3-dione], the IC50 was less than 1000 nM.

`OCC1Cc2nccc(-c3cc(Cl)cc4c3O[C@@H](c3onc5c3CNCC5)C4)c2O1` (stereo partly drawn) [(7-((R)-5-chloro-2-(4,5,6,7-tetrahydroisoxazolo[4,3-c]pyridin-3-yl)-2,3-dihydrobenzofuran-7-yl)-2,3-dihydrofuro[3,2-b]pyridin-2-yl)methanol] had an IC50 of 10000 to 30000 nM.

For the molecule `O=C([C@H]1Cc2cc(Cl)cc(-c3ccnc4cc(C5(O)COC5)sc34)c2O1)N1CCNCC1` [(R)-(5-chloro-7-(2-(3-hydroxyoxetan-3-yl)thieno[3,2-b]pyridin-7-yl)-2,3-dihydrobenzofuran-2-yl)(piperazin-1-yl)methanone], the IC50 was less than 1000 nM.

Turning to `Clc1cc2c(c(-c3ccnc4cc(Cl)ccc34)c1)O[C@@H](c1[nH]nc3c1CNCC3)C2` [(R)-7-chloro-4-(5-chloro-2-(4,5,6,7-tetrahydro-2H-pyrazolo[4,3-c]pyridin-3-yl)-2,3-dihydrobenzofuran-7-yl)quinoline], the IC50 was in the range of 1000 to 10000 nM.

Take `CCC(O)c1cc2ncnc(-c3cc(Cl)cc4c3O[C@@H](c3c5c(nn3C)CCC(N(C)C)C5)C4)c2s1` (stereo partly drawn) [1-(4-((2R)-5-chloro-2-(5-(dimethylamino)-2-methyl-4,5,6,7-tetrahydro-2H-indazol-3-yl)-2,3-dihydrobenzofuran-7-yl)thieno[3,2-d]pyrimidin-6-yl)propan-1-ol]: the IC50 lay within 1000 to 10000 nM.

`CN(C)C1CN(C(=O)[C@H]2Cc3cc(Cl)cc(-c4ccnc5cc(CO)sc45)c3O2)C1` [(R)-(5-chloro-7-(2-(hydroxymethyl)thieno[3,2-b]pyridin-7-yl)-2,3-dihydrobenzofuran-2-yl)(3-(dimethylamino)azetidin-1-yl)methanone]: the IC50 was less than 1000 nM.

With `CN(C)C1CCc2nn(C)c([C@H]3Cc4cc(Cl)cc(-c5ccnc6cc(CO)sc56)c4O3)c2C1` (stereo partly drawn) [(7-((2R)-5-chloro-2-(5-(dimethylamino)-2-methyl-4,5,6,7-tetrahydro-2H-indazol-3-yl)-2,3-dihydrobenzofuran-7-yl)thieno[3,2-b]pyridin-2-yl)methanol], the IC50 is less than 1000 nM.

The molecule `CCC(O)c1cc2nccc(-c3cc(Cl)cc4c3O[C@@H](c3onc5c3CNCC5)C4)c2s1` (stereo partly drawn) [drawing 1570, 1-(7-((R)-5-chloro-2-(4,5,6,7-tetrahydroisoxazolo[4,3-c]pyridin-3-yl)-2,3-dihydrobenzofuran-7-yl)thieno[3,2-b]pyridin-2-yl)propan-1-ol] showed an IC50 of less than 1000 nM.

`O=C(C1Cc2cc(Cl)c(F)c(-c3ccnc4[nH]ccc34)c2O1)N1CCNCC1` (centres unmarked) displayed an IC50 of 10000 to 30000 nM.

The molecule `O=C([C@H]1Cc2cc(Cl)cc(-c3ccnc4cc(CO)sc34)c2O1)N1CCn2nc(C(F)(F)F)nc2C1` [(R)-(5-chloro-7-(2-(hydroxymethyl)thieno[3,2-b]pyridin-7-yl)-2,3-dihydrobenzofuran-2-yl)(2-(trifluoromethyl)-5,6-dihydro-[1,2,4]triazolo[1,5-a]pyrazin-7(8H)-yl)methanone] gave an IC50 of 1000 to 10000 nM.

`Cn1nc([C@H]2Cc3cc(Cl)cc(-c4ccnc5ccsc45)c3O2)c2c1CCNC2` [(R)-7-(5-chloro-2-(1-methyl-4,5,6,7-tetrahydro-1H-pyrazolo[4,3-c]pyridin-3-yl)-2,3-dihydrobenzofuran-7-yl)thieno[3,2-b]pyridine] gave an IC50 of 1000 to 10000 nM.

`CC(=O)NC(C)c1cc2nccc(-c3cc(Cl)cc4c3O[C@@H](c3onc5c3CNCC5)C4)c2s1` (stereo partly drawn) [N-(1-(7-((R)-5-chloro-2-(4,5,6,7-tetrahydroisoxazolo[4,3-c]pyridin-3-yl)-2,3-dihydrobenzofuran-7-yl)thieno[3,2-b]pyridin-2-yl)ethyl)acetamide] displayed an IC50 of less than 1000 nM.

Regarding `O=C1NC(=O)C(c2cc3nccc(-c4cc(Cl)cc5c4O[C@@H](C(=O)N4CCNCC4)C5)c3s2)N1` (stereo partly drawn) [5-(7-((R)-5-chloro-2-(piperazine-1-carbonyl)-2,3-dihydrobenzofuran-7-yl)thieno[3,2-b]pyridin-2-yl)imidazolidine-2,4-dione], the IC50 is less than 1000 nM.

Take `O=C1CCC(=O)N1Cc1cc2ncnc(-c3cc(Cl)cc4c3O[C@@H](c3onc5c3CNCC5)C4)c2s1` [(R)-1-((4-(5-chloro-2-(4,5,6,7-tetrahydroisoxazolo[4,3-c]pyridin-3-yl)-2,3-dihydrobenzofuran-7-yl)thieno[3,2-d]pyrimidin-6-yl)methyl)pyrrolidine-2,5-dione]: the IC50 is less than 1000 nM.

In the case of `O=C([C@@H]1Cc2cc(Cl)cc(-c3ccnc4cc(CO)sc34)c2O1)N1CCNCC1` [(S)-(5-chloro-7-(2-(hydroxymethyl)thieno[3,2-b]pyridin-7-yl)-2,3-dihydrobenzofuran-2-yl)(piperazin-1-yl)methanone], the IC50 lay within 1000 to 10000 nM.

`Clc1cc2c(c(-c3ccnc4cc(Cl)ccc34)c1)O[C@@H](c1onc3c1CNCC3)C2` [(R)-3-(5-chloro-7-(7-chloroquinolin-4-yl)-2,3-dihydrobenzofuran-2-yl)-4,5,6,7-tetrahydroisoxazolo[4,3-c]pyridine] yielded an IC50 of less than 1000 nM.

For `Cn1nc2c(c1[C@H]1Cc3cc(Cl)cc(-c4ccnc5cc(CO)sc45)c3O1)CC(N1CCC1)CC2` (stereo partly drawn) [(7-((2R)-2-(5-(azetidin-1-yl)-2-methyl-4,5,6,7-tetrahydro-2H-indazol-3-yl)-5-chloro-2,3-dihydrobenzofuran-7-yl)thieno[3,2-b]pyridin-2-yl)methanol], the IC50 was less than 1000 nM.

For the molecule `Fc1ccc2nccc(-c3cc(Cl)cc4c3O[C@@H](c3onc5c3CNCC5)C4)c2c1` [(R)-3-(5-chloro-7-(6-fluoroquinolin-4-yl)-2,3-dihydrobenzofuran-2-yl)-4,5,6,7-tetrahydroisoxazolo[4,3-c]pyridine], the concentration for half-maximal inhibition (IC50) is less than 1000 nM.

In the case of `CC1(c2onc3c2CNCC3)Cc2cc(Cl)cc(-c3ccnc4cc(CO)sc34)c2O1` (centres unmarked) [(7-(5-chloro-2-methyl-2-(4,5,6,7-tetrahydroisoxazolo[4,3-c]pyridin-3-yl)-2,3-dihydrobenzofuran-7-yl)thieno[3,2-b]pyridin-2-yl)methanol], the half-maximal inhibitory concentration (IC50) was less than 1000 nM.

On to `O=C([C@H]1Cc2cc(Cl)cc(-c3ccnc4cc(CN5CCCCS5(=O)=O)sc34)c2O1)N1CCNCC1` [(R)-(5-chloro-7-(2-((1,1-dioxido-1,2-thiazinan-2-yl)methyl)thieno[3,2-b]pyridin-7-yl)-2,3-dihydrobenzofuran-2-yl)(piperazin-1-yl)methanone], for which the IC50 is less than 1000 nM.

`CC(C)C(=O)NCc1cc2nccc(-c3cc(Cl)cc4c3O[C@@H](c3onc5c3CNCC5)C4)c2s1` [(R)-N-((7-(5-chloro-2-(4,5,6,7-tetrahydroisoxazolo[4,3-c]pyridin-3-yl)-2,3-dihydrobenzofuran-7-yl)thieno[3,2-b]pyridin-2-yl)methyl)isobutyramide] had an IC50 of less than 1000 nM.

As to `Clc1cc2c(c(-c3ccncc3)c1)OC(c1onc3c1CNCC3)C2` (centres unmarked) [3-(5-chloro-7-(pyridin-4-yl)-2,3-dihydrobenzofuran-2-yl)-4,5,6,7-tetrahydroisoxazolo[4,3-c]pyridine], the half-inhibitory concentration (IC50) fell in the range of 1000 to 10000 nM.

In turn, `O=C([C@H]1Cc2cc(Cl)cc(-c3ccnc4cc(CO)oc34)c2O1)N1CCNCC1` [(R)-(5-chloro-7-(2-(hydroxymethyl)furo[3,2-b]pyridin-7-yl)-2,3-dihydrobenzofuran-2-yl)(piperazin-1-yl)methanone] gave an IC50 of less than 1000 nM.

Turning to `Cn1nc([C@H]2Cc3cc(Cl)cc(-c4ccnc5cc(Cl)ccc45)c3O2)c2c1CCNC2` [(R)-7-chloro-4-(5-chloro-2-(1-methyl-4,5,6,7-tetrahydro-1H-pyrazolo[4,3-c]pyridin-3-yl)-2,3-dihydrobenzofuran-7-yl)quinoline], the half-maximal inhibitory concentration (IC50) lay in the range of 10000 to 30000 nM.

Take `C[C@@H]1C[C@H](NC(=O)C2Cc3cc(Cl)cc(-c4ccnc5[nH]ccc45)c3O2)CCN1` (stereo partly drawn) [5-chloro-N-((2R,4R)-2-methylpiperidin-4-yl)-7-(1H-pyrrolo[2,3-b]pyridin-4-yl)-2,3-dihydrobenzofuran-2-carboxamide]: the IC50 is 1000 to 10000 nM.

On to `O=C(C1Cc2cc(Cl)cc(-c3ccnc4[nH]ccc34)c2O1)N1CCN(C2CCNCC2)CC1` (centres unmarked) [(5-chloro-7-(1H-pyrrolo[2,3-b]pyridin-4-yl)-2,3-dihydrobenzofuran-2-yl)(4-(piperidin-4-yl)piperazin-1-yl)methanone], for which the IC50 fell in the range of 10000 to 30000 nM.

With `O=C1CCC(c2cc3nccc(-c4cc(Cl)cc5c4O[C@@H](c4onc6c4CNCC6)C5)c3s2)N1` (stereo partly drawn) [5-(7-((R)-5-chloro-2-(4,5,6,7-tetrahydroisoxazolo[4,3-c]pyridin-3-yl)-2,3-dihydrobenzofuran-7-yl)thieno[3,2-b]pyridin-2-yl)pyrrolidin-2-one], the IC50 fell in the range of 1000 to 10000 nM.

`O=C(C1Cc2cc(Cl)cc(-c3ccnc4ccncc34)c2O1)N1CCNCC1` (centres unmarked) [(5-chloro-7-(1,6-naphthyridin-4-yl)-2,3-dihydrobenzofuran-2-yl)(piperazin-1-yl)methanone] came in with an IC50 of 10000 to 30000 nM.

The molecule `OCc1ccc2c(-c3cc(Cl)cc4c3O[C@@H](c3onc5c3CNCC5)C4)ccnc2c1` [(R)-(4-(5-chloro-2-(4,5,6,7-tetrahydroisoxazolo[4,3-c]pyridin-3-yl)-2,3-dihydrobenzofuran-7-yl)quinolin-7-yl)methanol] returned an IC50 of less than 1000 nM.

As to `Cn1nc2c(c1[C@H]1Cc3cc(Cl)cc(-c4ncnc5cc(CO)sc45)c3O1)CNCC2` [(R)-(4-(5-chloro-2-(2-methyl-4,5,6,7-tetrahydro-2H-pyrazolo[4,3-c]pyridin-3-yl)-2,3-dihydrobenzofuran-7-yl)thieno[3,2-d]pyrimidin-6-yl)methanol], the IC50 is less than 1000 nM.

For `CCC(O)c1cc2ncnc(-c3cc(Cl)cc4c3O[C@@H](c3ocnc3CNCC(F)(F)F)C4)c2s1` (stereo partly drawn) [1-(4-((R)-5-chloro-2-(4-(((2,2,2-trifluoroethyl)amino)methyl)oxazol-5-yl)-2,3-dihydrobenzofuran-7-yl)thieno[3,2-d]pyrimidin-6-yl)propan-1-ol], the IC50 lay within 10000 to 30000 nM.

`CC(O)c1ccc2c(-c3cc(Cl)cc4c3O[C@@H](c3onc5c3CNCC5)C4)ccnc2c1` (stereo partly drawn) [1-(4-((R)-5-chloro-2-(4,5,6,7-tetrahydroisoxazolo[4,3-c]pyridin-3-yl)-2,3-dihydrobenzofuran-7-yl)quinolin-7-yl)ethan-1-ol]: the IC50 was less than 1000 nM.

Values taken from patent US20210317134A1, “UBIQUITIN-SPECIFIC-PROCESSING PROTEASE 7 (USP7) MODULATORS AND USES THEREOF” (RAPT THERAPEUTICS, INC., priority 2019, published 2021).
